Assay results as given in patent EP2663342B1, “STABLE HYDROGEL COMPOSITIONS INCLUDING PHENYLEPHRINE” (ALLERGAN, INC., priority 2011, dated 2012).

Tests used:
Assay type in all cases: physicochemical
[1] = Aspect (color/clarity/homogeneity) of HA-based gel after autoclaving
[2] = Extrusion force of HA-based gel after autoclaving; settings: ΔF vs HA gel without the added ingredients
Excerpt: Stability of a hydrogel composition disclosed herein can be determined by subjecting a hydrogel composition to a heat treatment, such as, e.g., steam sterilization at normal pressure or under pressure (e.g., autoclaving). […] Substantial stability of a hydrogel composition disclosed herein can be evaluated 1) by determining the change in the extrusion force (ΔF) of a hydrogel composition disclosed herein after sterilization, where the change in extrusion force less 2N is indicative of a substantially stable hydrogel composition as measured by (the extrusion force of a hydrogel composition with the specified additives) minus (the extrusion force of the a hydrogel composition without the added additives); and/or 2) by determining the change in rheological properties of a hydrogel composition disclosed herein after sterilization, where the change in tan δ 1 Hz of less than 0.1 is indicative of a substantially stable hydrogel composition as measured by (tan δ 1 Hz of gel formulation with additives) minus (tan δ 1 Hz of gel formulation without additives). As such, a substantially stable hydrogel composition disclosed herein retains one or more of the following characteristics after sterilization: homogeneousness, extrusion force, cohesiveness, hyaluronan concentration, agent(s) concentration, osmolarity, pH, or other rheological characteristics desired by the hydrogel before the heat treatment.
(§1) The hydrogel properties, aspect (i.e., color/clarity/homogeneity), and extrusion force were analyzed after autoclaving and at 3 years equivalent at room temperature.

[3] = Extrusion force of HA-based gel at 3 years equivalent at room temperature
Procedure: as §1

[4] = Aspect (color/clarity/homogeneity) of HA-based gel after autoclaving; settings: for Aspect: after autoclaving and at 3 years equivalent at room temperature
Procedure: The active ingredient was incorporated into a HA-based gel matrix and autoclaved by steam sterilization at a temperature between about 130 °C to about 135 °C for between about one minute and about 10 minutes. The hydrogel properties, aspect (i.e., color/clarity/homogeneity), and extrusion force were analyzed after autoclaving and at 3 years equivalent at room temperature. All formulations were clear, homogenous, uncolored, and had acceptable extrusion force properties after autoclaving and at the 3-year equivalent mark (Table 3).
Ascorbic acid, at a concentration of 1% (w/w) was, incorporated in a HA-based gel matrix, and the pH of the gel adjusted to about 7 and then autoclaved by steam sterilization at a temperature between about 130 °C to about 135 °C for between about one minute and about 10 minutes.

[5] = Oxidation testing: degradation by free radicals (H2O2) on a rheometer; settings: gel with AA2G and lidocaine versus gel with lidocaine
Excerpt: The effect of ascorbic acid 2-glucoside (AA2G™) on HA-based gel matrix oxidative degradation was studied. Oxidation testing was used as it allows testing of the resistance of a HA-based gel matrix to free radicals. Degradation by free radicals was simulated on a rheometer (Haake Rheostress 600) by addition of 1/7 ratio of H2O2 30% on the surface of a spread gel measured with a controlled stress rheometer according to the following method: frequency of 1 Hz with 0.8% controlled strain, during 3600 s at 35 °C. The time value is taken at 5 Pa/s.

[6] = ingredient at 0.5 % in HA-based gel matrix
[7] = ingredient at 1 % in HA-based gel matrix
[8] = ingredient at 0.3 % in HA-based gel matrix

## CNC[C@H](O)c1cccc(O)c1 [Phenylephrine, (R)-3-[-1-hydroxy-2-(methylamino)ethyl]phenol]
[1]; 100 ppm or 400ppm phenylephrine in HA-based gel matrixes comprising 0.3% (w/w) lidocaine, same before autoclaving
  aspect of gels after autoclaving: clear and uncolored

## Cc1cc(=O)n(-c2ccccc2)n1C [Antipyrin, reference compound]
[2]; [6]
  Extrusion force (N) after autoclaving: PASSED (the change of extrusion force (ΔF) was less than two Newtons (< 2 N))
[2]; [7]
  Extrusion force (N) after autoclaving: PASSED (the change of extrusion force (ΔF) was less than two Newtons (< 2 N))
[3]; [6]
  Extrusion force (N) 3 years ∼ room T °C: PASSED (the change of extrusion force (ΔF) was less than two Newtons (< 2 N))
[3]; [7]
  Extrusion force (N) 3 years ∼ room T °C: PASSED (the change of extrusion force (ΔF) was less than two Newtons (< 2 N))
[4]; [6]
  Aspect: Clear Homogeneous Uncolored
[4]; [7]
  Aspect: Clear Homogeneous Uncolored

## CC(C)(CO)[C@@H](O)C(=O)NCCCO [Dexpanthenol]
[1]; 1% (w/w) in HA-based gel matrix comprising 0.3% (w/w) lidocaine, same before autoclaving
  aspect of gel after autoclaving: clear and uncolored

## OCC(O)CO [Glycerin]
[2]; [6]
  Extrusion force (N) after autoclaving: PASSED (the change of extrusion force (ΔF) was less than two Newtons (< 2 N))
[3]; [6]
  Extrusion force (N) 3 years ∼ room T °C: PASSED (the change of extrusion force (ΔF) was less than two Newtons (< 2 N))

## O=C1O[C@H]([C@@H](O)CO)C(O)=C1O [Ascorbic acid, (5R)-[(1S)-1,2-dihydroxyethyl]-3,4-dihydroxyfuran-2(5H)-one]
[4]; 1% (w/w) in HA-based gel matrix, pH about 7, clear and uncolored before autoclaving
  aspect of gel after autoclaving: clear but yellowed

## CNCC(O)c1ccc(O)cc1 (stereo not drawn) [Synephrine, 4-[1-hydroxy-2-(methylamino)ethyl]phenol]
[1]; 100 ppm synephrine in HA-based gel matrix comprising 0.3% (w/w) lidocaine, same before autoclaving
  aspect of gel after autoclaving: clear and uncolored

## Cc1c(C)c2c(c(C)c1OP(=O)([O-])[O-])CCC(C)(CCCC(C)CCCC(C)CCCC(C)C)O2.[Na+].[Na+] (stereo not drawn) [Sodium Tocopheryl Phosphate]
[1]; 0.4% (w/w) or 1.2% (w/w) in HA-based gel matrix
  aspect of gel after autoclaving: unclear and white

## Cc1cn([C@H]2C[C@H](O)[C@@H](CO)O2)c(=O)[nH]c1=O [Thymidine]
[2]; [6]
  Extrusion force (N) after autoclaving: PASSED (the change of extrusion force (ΔF) was less than two Newtons (< 2 N))
[2]; [7]
  Extrusion force (N) after autoclaving: PASSED (the change of extrusion force (ΔF) was less than two Newtons (< 2 N))
[3]; [6]
  Extrusion force (N) 3 years ∼ room T °C: PASSED (the change of extrusion force (ΔF) was less than two Newtons (< 2 N))
[3]; [7]
  Extrusion force (N) 3 years ∼ room T °C: PASSED (the change of extrusion force (ΔF) was less than two Newtons (< 2 N))

## NC[C@H]1CC[C@H](C(=O)O)CC1 [Tranexamic acid, reference compound]
[2]; [6]
  Extrusion force (N) after autoclaving: PASSED (the change of extrusion force (ΔF) was less than two Newtons (< 2 N))
[1]; 0.4% (w/w) tranexamic acid in HA-based gel matrix comprising 0.3% (w/w) lidocaine, same before autoclaving
  aspect of gel after autoclaving: clear and uncolored
[3]; [6]
  Extrusion force (N) 3 years ∼ room T °C: PASSED (the change of extrusion force (ΔF) was less than two Newtons (< 2 N))

## CNC[C@H](O)c1ccc(O)c(O)c1 [Epinephrine, (R)-4-(1-hydroxy-2-(methylamino)ethyl)benzene-1,2-diol]
[1]; 10 ppm in HA-based gel matrix with 0.9% (w/w) mannitol
  aspect of gel after autoclaving: slightly colored
[1]; 10 ppm in HA-based gel matrix with 4.5% (w/w) mannitol, same before autoclaving
  aspect of gel after autoclaving: clear and uncolored

## O=C1O[C@H]([C@@H](O)CO)C(O)=C1O[C@H]1O[C@H](CO)[C@@H](O)[C@H](O)[C@H]1O [Ascorbic acid 2-Glucoside]
[1]; 0.6% (w/w), 1% (w/w), or 2% (w/w) AA2G in HA-based gel matrix, pH about 7, same before autoclaving
  aspect of gel after autoclaving: clear and uncolored
[5]
  protected against oxidative degradation by a factor: 3

## CNC[C@H](O)c1ccc(O)c(O)c1 [Epinephrine bitartrate]
[1]; 10 ppm in HA-based gel matrix comprising 0.3% (w/w) lidocaine, clear and uncolored before autoclaving
  aspect of gel after autoclaving: clear but colored
[1]; 10 ppm in HA-based gel matrix, same before autoclaving
  aspect of gel after autoclaving: clear and uncolored
[1]; 20 ppm in HA-based gel matrix comprising 0.3% (w/w) lidocaine and 4.5% (w/w) mannitol, clear and uncolored before autoclaving
  aspect of gel after autoclaving: slightly colored

## O=C1O[C@H]([C@@H](O)CO)C([O-])=C1OP(=O)([O-])[O-].[Na+].[Na+].[Na+] [Sodium Ascorbyl Phosphate]
[1]; 0.6% (w/w), 1% (w/w), or 2% (w/w) SAP in HA-based gel matrix, pH about 7, same before autoclaving
  aspect of gel after autoclaving: clear and uncolored

## NC(=O)NC1NC(=O)NC1=O (stereo not drawn) [Allantoin]
[2]; [8]
  Extrusion force (N) after autoclaving: PASSED (the change of extrusion force (ΔF) was less than two Newtons (< 2 N))
[2]; [6]
  Extrusion force (N) after autoclaving: PASSED (the change of extrusion force (ΔF) was less than two Newtons (< 2 N))
[3]; [8]
  Extrusion force (N) 3 years ∼ room T °C: PASSED (the change of extrusion force (ΔF) was less than two Newtons (< 2 N))
[3]; [6]
  Extrusion force (N) 3 years ∼ room T °C: PASSED (the change of extrusion force (ΔF) was less than two Newtons (< 2 N))

## O=C1O[C@H]([C@@H](O)CO)C([O-])=C1OP(=O)([O-])[O-].O=C1O[C@H]([C@@H](O)CO)C([O-])=C1OP(=O)([O-])[O-].[Mg+2].[Mg+2].[Mg+2] [Magnesium Ascorbyl Phosphate]
[1]; 0.6% (w/w), 1% (w/w) or 2% (w/w) MAP in HA-based gel matrix, pH about 7, same before autoclaving
  aspect of gel after autoclaving: clear and uncolored

## Polyoxyethanyl-α-tocopheryl sebacate
[1]; 0.7% (w/w) in HA-based gel matrix
  aspect of gel after autoclaving: clear, but heterogeneous

## O=c1ccn([C@@H]2O[C@H](CO)[C@@H](O)[C@H]2O)c(=O)[nH]1 [Uridine]
[2]; [6]
  Extrusion force (N) after autoclaving: PASSED (the change of extrusion force (ΔF) was less than two Newtons (< 2 N))
[2]; [7]
  Extrusion force (N) after autoclaving: PASSED (the change of extrusion force (ΔF) was less than two Newtons (< 2 N))
[3]; [6]
  Extrusion force (N) 3 years ∼ room T °C: PASSED (the change of extrusion force (ΔF) was less than two Newtons (< 2 N))
[3]; [7]
  Extrusion force (N) 3 years ∼ room T °C: PASSED (the change of extrusion force (ΔF) was less than two Newtons (< 2 N))
[4]; [6]
  Aspect: Clear Homogeneous Uncolored
[4]; [7]
  Aspect: Clear Homogeneous Uncolored

## c1ccc2c(CC3=NCCN3)cccc2c1 [Naphazoline, 2-(1-naphthylmethyl)-2-imidazoline]
[1]; 100 ppm naphazoline in HA-based gel matrix comprising 0.3% (w/w) lidocaine, same before autoclaving
  aspect of gel after autoclaving: clear and uncolored

## CC12CCC(CC1)C(C)(C)O2 [Eucalyptol]
[2]; [6]
  Extrusion force (N) after autoclaving: PASSED (the change of extrusion force (ΔF) was less than two Newtons (< 2 N))
[3]; [6]
  Extrusion force (N) 3 years ∼ room T °C: PASSED (the change of extrusion force (ΔF) was less than two Newtons (< 2 N))

## Nc1ccn([C@@H]2O[C@H](CO)[C@@H](O)[C@H]2O)c(=O)n1 [Cytidine]
[2]; [6]
  Extrusion force (N) after autoclaving: PASSED (the change of extrusion force (ΔF) was less than two Newtons (< 2 N))
[2]; [7]
  Extrusion force (N) after autoclaving: PASSED (the change of extrusion force (ΔF) was less than two Newtons (< 2 N))
[3]; [6]
  Extrusion force (N) 3 years ∼ room T °C: PASSED (the change of extrusion force (ΔF) was less than two Newtons (< 2 N))
[3]; [7]
  Extrusion force (N) 3 years ∼ room T °C: PASSED (the change of extrusion force (ΔF) was less than two Newtons (< 2 N))

## CC(=O)Oc1c(C)c(C)c2c(c1C)CCC(C)(CCC[C@H](C)CCC[C@H](C)CCCC(C)C)O2 (stereo partly drawn) [Tocopheryl Acetate]
[1]; 0.5% (w/w) or 1.2% (w/w) in HA-based gel matrix
  aspect of gel after autoclaving: unclear and white
